How the values were obtained:
MOLT-4 = experiment: […] in human MOLT4 cells after 24 to 72 hrs by MTT assay; type: functional, cell-based
Calf thymus DNA [1] = experiment: Binding affinity to double strand calf thymus DNA assessed as melting temperature; type: nucleic-acid assay; conditions: Bos taurus
Calf thymus DNA [2] = experiment: Binding affinity to calf thymus DNA assessed as exothermic enthalpy at 20 degC by isothermal titration […]; type: nucleic-acid assay; conditions: Bos taurus

For `CCCCCCCCCCCCCCCC(=O)OCC(CO[C@H]1O[C@H](CS(=O)(=O)O)[C@@H](O)[C@H](O)[C@H]1O)OC(=O)CCCCCCCCCCCCCCC` (stereo partly drawn), the IC50 (MOLT-4) was 8.3 µM, the Tm (Calf thymus DNA [1]) was 62 °C and the Ka (Calf thymus DNA [2]) was 5.64 ×10⁴ /M.

Reference: ChEMBL document CHEMBL1268963, “Identification of a sulfonoquinovosyldiacylglyceride from Azadirachta indica and studies on its cytotoxic activity and DNA binding properties” (Bioorg Med Chem Lett, 2010)
